Results: paper PMC10765884, “MC180295 is a highly potent and selective CDK9 inhibitor with preclinical in vitro and in vivo efficacy in cancer” (Clinical Epigenetics, 2024)

Columns and labels:
Assay in all cases: Growth inhibition (cell counting, day 5)
Type in all cases: cell-based
451LU = conditions: Melanoma
Experimental: (§1) The live-cell assay for GFP reactivation in YB5 cells was done as previously described. Cells were treated with a single dose of drug 24 h after seeding at low density, and GFP fluorescence measured in a Millipore Guava flow cytometer (EMD, Millipore) instrument, or by imaging in a Cytation instrument (Agilent). Cancer cell lines (listed in Additional file 1: Fig. S1A) were obtained from ATCC or the Temple/Fox Chase Cellular Repository and cultured in the recommended medium. To measure growth inhibition, cells were seeded in 96-well plates at 40% confluency. Fresh medium was changed the next day and drugs were added directly. Drug-free fresh medium was changed on the fourth day. The cells were collected on day 5 by trypsin, suspended in medium, mixed with trypan blue (Thermo Fisher Scientific) (1:1 ratio), and counted using a LUNA II automated cell counter. Each sample was counted at least three times, and average numbers used for the analysis. Each treatment condition was performed in biological triplicates.

A2058 = conditions: Homo sapiens, Melanoma
Experimental: as §1

BT474 = conditions: Homo sapiens, BT-474; Breast
Experimental: as §1

CT26.CL25 = conditions: Mus musculus; Colon
Experimental: as §1

Cama-1 = conditions: Homo sapiens, Breast
Experimental: as §1

DU145 = conditions: Homo sapiens, DU-145; Prostate
Experimental: as §1

HCT116 = conditions: Homo sapiens, HCT-116; Colon
Experimental: as §1

HL-60 = conditions: Homo sapiens, Leukemia
Experimental: as §1

Jurkat = conditions: Homo sapiens, Leukemia
Experimental: as §1

KG-1a = conditions: Homo sapiens, Leukemia
Experimental: as §1

KG-1 = conditions: Homo sapiens, Leukemia
Experimental: as §1

KM12 = conditions: Homo sapiens, Colon
Experimental: as §1

M14 = conditions: Homo sapiens, Melanoma
Experimental: as §1

MALME-3M = conditions: Homo sapiens, Melanoma
Experimental: as §1

OCI-AML3 = conditions: Homo sapiens, OCI-AML-3; Leukemia
Experimental: as §1

Raji = conditions: Homo sapiens, Leukemia
Experimental: as §1

SW48 = conditions: Homo sapiens, Colon
Experimental: as §1

VACCC257 = conditions: Melanoma
Experimental: as §1

WM3918 = conditions: Melanoma
Experimental: as §1

WM983B = conditions: Melanoma
Experimental: as §1

sk-mel28 = conditions: Homo sapiens, SK-MEL-28; Melanoma
Experimental: as §1

Nc1nc(N[C@H]2C[C@@H]3CC[C@H]2C3)sc1C(=O)c1ccccc1[N+](=O)[O-] (relative stereo) [MC180295]
IC50 (451LU): 110 nM | IC50 (A2058): 198 nM | IC50 (BT474): 80 nM | IC50 (CT26.CL25): 166 nM | IC50 (Cama-1): 624 nM | IC50 (DU145): 211 nM | IC50 (HCT116): 92.2 nM | IC50 (HL-60): 121 nM | IC50 (Jurkat): 141 nM | IC50 (KG-1a): 82.3 nM | IC50 (KG-1): 148 nM | IC50 (KM12): 102 nM | IC50 (M14): 305 nM | IC50 (MALME-3M): 350 nM | IC50 (OCI-AML3): 95.3 nM | IC50 (Raji): 137 nM | IC50 (SW48): 98.1 nM | IC50 (VACCC257): 343 nM | IC50 (WM3918): 150 nM | IC50 (WM983B): 250 nM | IC50 (sk-mel28): 422 nM
